Values joined by “and” are separate entries in the source; they are usually repeats but may differ in a detail not shown here. Equal entries are not always repeated.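 Where inhibition never reached the appropriate level, the endpoint shown equals the highest concentration tested. Otherwise, values were interpolated linearly from a five-concentration, 48-hour dose response in 96-well plates. Abbreviation: GI50, concentration required for 50% inhibition of growth. At the TGI there is no net growth.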
Columns and labels:
Assay in all cases: NCI tumour cell line growth inhibition, 48 h
786-0 renal = test system: 786-0 renal
ACHN renal = test system: ACHN renal
CCRF-CEM leukemia = test system: CCRF-CEM leukemia
COLO 205 colon = test system: COLO 205 colon
HCC-2998 colon = test system: HCC-2998 colon
HT29 colon = test system: HT29 colon
M14 melanoma = test system: M14 melanoma
MALME-3M melanoma = test system: MALME-3M melanoma
NCI-H226 lung = test system: NCI-H226 lung
RXF 393 renal = test system: RXF 393 renal

COC(=O)C1CC(C(=O)OC)c2nc3cc(C)ccc3nc21 (stereo unspecified)
TGI (786-0 renal): > 100 µM | TGI (ACHN renal): > 100 µM | TGI (CCRF-CEM leukemia): > 100 µM | TGI (COLO 205 colon): > 100 µM | TGI (HCC-2998 colon): > 100 µM | TGI (HT29 colon): > 100 µM | TGI (M14 melanoma): > 100 µM | TGI (MALME-3M melanoma): > 100 µM | TGI (NCI-H226 lung): > 100 µM

COC(=O)C1=C(C)N(NC(N)=O)C2(N)N(NC(N)=O)C(C)=C(C(=O)OC)C12C(=O)OC (stereo unspecified)
TGI (786-0 renal): > 100 µM | TGI (ACHN renal): > 100 µM | TGI (CCRF-CEM leukemia): > 100 µM | TGI (COLO 205 colon): > 100 µM | TGI (HCC-2998 colon): > 100 µM | TGI (HT29 colon): > 100 µM | TGI (M14 melanoma): > 100 µM | TGI (MALME-3M melanoma): > 100 µM | TGI (NCI-H226 lung): > 100 µM

CC(C)C(=O)/C=C/c1ccccc1
TGI (786-0 renal): > 100 µM | TGI (ACHN renal): > 100 µM | TGI (CCRF-CEM leukemia): 67.5 µM | TGI (COLO 205 colon): > 100 µM | TGI (HCC-2998 colon): > 100 µM | TGI (HT29 colon): > 100 µM | TGI (M14 melanoma): > 100 µM | TGI (RXF 393 renal): > 100 µM

Nc1ccc2c(SCCSc3c4ccccc4nc4cc(N)ccc34)c3ccccc3nc2c1
TGI (786-0 renal): > 100 µM | TGI (ACHN renal): > 100 µM | TGI (CCRF-CEM leukemia): > 100 µM | TGI (COLO 205 colon): > 100 µM | TGI (HT29 colon): > 100 µM | TGI (M14 melanoma): > 100 µM | TGI (MALME-3M melanoma): > 100 µM | TGI (NCI-H226 lung): > 100 µM

Nc1ccccc1C#C/C=C\C#Cc1ccccc1C(F)(F)F
GI50 (786-0 renal): 0.545 µM | TGI (786-0 renal): 16.7 µM | GI50 (ACHN renal): 0.323 µM | TGI (ACHN renal): 15.8 µM | GI50 (CCRF-CEM leukemia): 17.7 µM | TGI (CCRF-CEM leukemia): > 100 µM | GI50 (COLO 205 colon): 1.92 µM | TGI (COLO 205 colon): > 37.2 µM | GI50 (HT29 colon): 3.58 µM | TGI (HT29 colon): > 100 µM | GI50 (M14 melanoma): 0.422 µM | TGI (M14 melanoma): 9.74 µM | GI50 (NCI-H226 lung): 0.233 µM | TGI (NCI-H226 lung): 19.3 µM | GI50 (RXF 393 renal): 1.1 µM | TGI (RXF 393 renal): 9.98 µM

OC1(C(O)(c2ccc(-c3ccccc3)cc2)c2ccc(-c3ccccc3)cc2)CCCCC1
TGI (786-0 renal): > 100 µM | TGI (ACHN renal): > 100 µM | TGI (COLO 205 colon): > 100 µM | TGI (HCC-2998 colon): > 100 µM | TGI (HT29 colon): > 100 µM | TGI (M14 melanoma): > 100 µM | TGI (NCI-H226 lung): > 100 µM | TGI (RXF 393 renal): > 100 µM

CC[C@]1(O)CC2CN(CCc3c([nH]c4ccccc34)[C@@](C(=O)OC)(c3cc4c(cc3OC)N(C)[C@H]3[C@@](O)(C(=O)OC)[C@H](OC(C)=O)[C@]5(CC)C=CCN6CC[C@]43[C@@H]65)C2)C1 (stereo partly specified)
GI50 (786-0 renal): < 0.005 µM | TGI (786-0 renal): 3.13 µM | GI50 (ACHN renal): 0.076 µM | TGI (ACHN renal): > 50 µM | GI50 (CCRF-CEM leukemia): < 0.005 µM | TGI (CCRF-CEM leukemia): 18.5 µM | GI50 (COLO 205 colon): < 0.005 µM | TGI (COLO 205 colon): 0.00511 µM | GI50 (HCC-2998 colon): < 0.005 µM | TGI (HCC-2998 colon): 0.0195 µM | GI50 (HT29 colon): < 0.005 µM | TGI (HT29 colon): 5.18 µM | GI50 (M14 melanoma): < 0.005 µM | TGI (M14 melanoma): 0.0417 µM | GI50 (MALME-3M melanoma): < 0.005 µM | TGI (MALME-3M melanoma): 11.8 µM | GI50 (NCI-H226 lung): < 0.005 µM | TGI (NCI-H226 lung): 0.148 µM

O=C1C=C[C@@]23CC1C(O)C[C@H]2C=Cc1ccccc13 (stereo partly specified)
TGI (786-0 renal): > 100 µM | TGI (ACHN renal): > 100 µM | TGI (CCRF-CEM leukemia): > 100 µM | TGI (COLO 205 colon): > 100 µM | TGI (HCC-2998 colon): > 100 µM | TGI (HT29 colon): > 100 µM | TGI (M14 melanoma): > 100 µM | TGI (MALME-3M melanoma): > 100 µM | TGI (NCI-H226 lung): > 100 µM

CC1OC(n2ncc(=O)[nH]c2=O)C=CC1=O (stereo unspecified)
TGI (786-0 renal): > 100 µM | TGI (ACHN renal): > 100 µM | GI50 (COLO 205 colon): > 100 µM and 36.9 µM | TGI (COLO 205 colon): > 100 µM | TGI (HCC-2998 colon): > 100 µM | TGI (HT29 colon): > 100 µM | GI50 (M14 melanoma): 89.4 µM and 20.5 µM | TGI (M14 melanoma): > 100 µM and 60.5 µM | TGI (MALME-3M melanoma): 40.2 µM and 48.3 µM | TGI (NCI-H226 lung): > 100 µM

CCOP(=O)(OCC)C(NC(c1ccccc1)c1ccccc1)c1ccccc1 (stereo unspecified)
GI50 (786-0 renal): 14.6 µM | TGI (786-0 renal): 29.2 µM | GI50 (ACHN renal): 13.2 µM | TGI (ACHN renal): 26.3 µM | GI50 (CCRF-CEM leukemia): 18.2 µM | TGI (CCRF-CEM leukemia): 58.8 µM | GI50 (HCC-2998 colon): 14.8 µM | TGI (HCC-2998 colon): 29.5 µM | GI50 (HT29 colon): 32.2 µM | TGI (HT29 colon): > 100 µM | GI50 (M14 melanoma): 15.3 µM | TGI (M14 melanoma): 28.6 µM

OCCCCC#Cc1ccccc1C#Cc1ccccc1
GI50 (786-0 renal): 8.6 µM | TGI (786-0 renal): 22.5 µM | GI50 (ACHN renal): 15.2 µM | TGI (ACHN renal): 29.1 µM | GI50 (COLO 205 colon): 12.9 µM | TGI (COLO 205 colon): 36.3 µM | GI50 (HCC-2998 colon): 16.8 µM | TGI (HCC-2998 colon): 43.6 µM | GI50 (HT29 colon): 13.2 µM | TGI (HT29 colon): > 100 µM | GI50 (M14 melanoma): 10.1 µM | TGI (M14 melanoma): 22.9 µM | GI50 (MALME-3M melanoma): 16.9 µM | TGI (MALME-3M melanoma): 32.1 µM | GI50 (NCI-H226 lung): 16.2 µM | TGI (NCI-H226 lung): 35.3 µM

N[C@@H](Cc1c[nH]c2ccccc12)C(=O)NC1CCN(C(=O)c2c[nH]c3ccccc23)CC1
GI50 (786-0 renal): 78.1 µM | TGI (786-0 renal): > 100 µM | GI50 (ACHN renal): > 100 µM | TGI (ACHN renal): > 100 µM | GI50 (CCRF-CEM leukemia): > 100 µM | TGI (CCRF-CEM leukemia): > 100 µM | GI50 (COLO 205 colon): 47.9 µM | TGI (COLO 205 colon): > 100 µM | GI50 (HCC-2998 colon): > 100 µM | TGI (HCC-2998 colon): > 100 µM | GI50 (HT29 colon): > 100 µM | TGI (HT29 colon): > 100 µM | GI50 (M14 melanoma): > 100 µM | TGI (M14 melanoma): > 100 µM | GI50 (MALME-3M melanoma): 77.5 µM | TGI (MALME-3M melanoma): > 100 µM | GI50 (NCI-H226 lung): > 100 µM | TGI (NCI-H226 lung): > 100 µM

Cc1cccc(-c2nc3c(C(=O)NCCN(C)C)cccc3[nH]2)c1
TGI (786-0 renal): 7.88 µM | TGI (ACHN renal): 8.46 µM | TGI (COLO 205 colon): 1.56 µM | TGI (HCC-2998 colon): 1.95 µM | TGI (HT29 colon): 3.48 µM | TGI (M14 melanoma): 2.98 µM | TGI (NCI-H226 lung): 3.89 µM | TGI (RXF 393 renal): 2.47 µM

Oc1ccc(/C=N\Nc2ccccn2)c(O)c1
GI50 (786-0 renal): 1.53 µM | TGI (786-0 renal): > 100 µM | GI50 (ACHN renal): 0.338 µM | TGI (ACHN renal): 2.82 µM | GI50 (CCRF-CEM leukemia): 1.01 µM | TGI (CCRF-CEM leukemia): 8.71 µM | GI50 (COLO 205 colon): 5.83 µM | TGI (COLO 205 colon): > 100 µM | GI50 (HCC-2998 colon): 3 µM | TGI (HCC-2998 colon): > 100 µM | GI50 (HT29 colon): 4.8 µM | TGI (HT29 colon): > 100 µM | GI50 (NCI-H226 lung): 2.25 µM | TGI (NCI-H226 lung): 7.03 µM | GI50 (RXF 393 renal): 2.24 µM | TGI (RXF 393 renal): 53.4 µM

COc1ccc(C=C2C(=O)OC(C)(C)OC2=O)cc1OC
TGI (786-0 renal): > 100 µM | TGI (ACHN renal): > 100 µM | TGI (CCRF-CEM leukemia): > 100 µM | TGI (COLO 205 colon): > 100 µM | TGI (HCC-2998 colon): > 100 µM | TGI (HT29 colon): > 100 µM | TGI (M14 melanoma): > 100 µM | TGI (MALME-3M melanoma): > 100 µM

CCN1C2=NC(=O)N(C)C(=O)C2(Cl)C(C(SC)S(=O)(=O)c2ccc(C)cc2)c2ccccc21 (stereo unspecified)
TGI (786-0 renal): 52.9 µM | TGI (CCRF-CEM leukemia): 25.7 µM | TGI (COLO 205 colon): 99.2 µM | TGI (HCC-2998 colon): > 100 µM | TGI (HT29 colon): > 100 µM | TGI (M14 melanoma): 52.5 µM | TGI (MALME-3M melanoma): > 100 µM | TGI (NCI-H226 lung): > 100 µM
